Results from patent US20060241149A1, “Chemical compounds” (priority 2002, published 2006).
Counter-ions that a name gives are not always drawn.

Tests used:
TIE2 kinase = molecular target: T1, TIE2 kinase (Homo sapiens, UniProt Q02763); experiment: TIE2 kinase inhibition; assay type: biochemical
T1 construct: made in house; host or cells: baculovirus expression (insect cells)
Description: TIE-2 Enzyme Assay (TIE2-E)
The TIE-2 enzyme assay uses the LANCE method (Wallac) and GST-TIE2, baculovirus expressed recombinant constructs of the intracellular domains of human TIE2 (amino acids 762-1104, GenBank Accession #L06139) tagged by GST). The method measures the ability of the purified enzymes to catalyse the transfer of the γ-phosphate from ATP onto tyrosine residues in a biotinylated synthetic peptide, D1-15 (biotin-C6-LEARLVAYEGWVAGKKKamide). This peptide phosphorylation is detected using the following procedure: for enzyme preactivation, GST-TIE2 is incubated for 30 mins at room temperature with 2 mM ATP, 5 mM MgCl2 and 12.5 mM DTT in 22.5 MM HEPES buffer (pH7.4). Preactivated GST-TIE2 is incubated for 30mins at room temperature in 96 well plates with 1 uM D1-15 peptide, 80 uM ATP, 10 mM MgCl2, 0.1 mg/ml BSA and the test compound (diluted from a 10 mM stock in DMSO, final DMSO concentration is 2.4%) in 1 mM HEPES (pH7.4). The reaction is stopped by the addition of EDTA (final concentration 45 mM). Streptavidin linked-APC (allophycocyanin, Molecular Probe) and Europium-labeled anti-phosphorylated tyrosine antibody (Wallac) are then added at the final concentration of 17 ug/well and 2.1 ug/well, respectively. The APC signal is measured using an ARVO multilabel counter. (Wallac Berthold Japan). The percent inhibition of activity is calculated relative to blank control wells. The concentration of test compound that inhibits 50% of activity (IC50) is interpolated using nonlinear regression (Levernberg-Marquardt) and the equation, y=Vmax (1−x/(K+x))+Y2, where “K” is equal to the IC50. The IC50 values are converted to pIC50 values, i.e., -log IC50 in Molar concentration.
TIE-2 Enzyme Assay (TIE2-E2
The TIE-2 enzyme assay uses the LANCE method (Wallac) and GST-TIE2, baculovirus-expressed recombinant constructs of the intracellular domains of human TIE2 (amino acids 762-1104, GenBank Accession #L06139) tagged by GST). The method measures the ability of the purified enzymes to catalyse the transfer of the γ-phosphate from ATP onto tyrosine residues in a biotinylated synthetic peptide, D1-15 (biotin-C6-LEARLVAYEGWVAGKKKamide). This peptide phosphorylation is detected using the following procedure: for enzyme preactivation, GST-TIE2 is incubated for 2 hours at room temperature with 80 μM ATP, 10 mM MgCl2, 0.1 mg/ml BSA, 0.01% Tween 20 and 1 mM DTT in 100 mM HEPES buffer (pH7.4). […] The APC signal is measured using an Wallac Multilabel 1420 counter. […] The percent inhibition of activity is calculated relative to blank control wells. […]
Tie2 Fluorescence Polarization Kinase Activity Assay: (TIE2-FP) […]

Raf kinase = Raf kinase inhibition; assay type: biochemical

T1 sequence (Q02763 762-1104): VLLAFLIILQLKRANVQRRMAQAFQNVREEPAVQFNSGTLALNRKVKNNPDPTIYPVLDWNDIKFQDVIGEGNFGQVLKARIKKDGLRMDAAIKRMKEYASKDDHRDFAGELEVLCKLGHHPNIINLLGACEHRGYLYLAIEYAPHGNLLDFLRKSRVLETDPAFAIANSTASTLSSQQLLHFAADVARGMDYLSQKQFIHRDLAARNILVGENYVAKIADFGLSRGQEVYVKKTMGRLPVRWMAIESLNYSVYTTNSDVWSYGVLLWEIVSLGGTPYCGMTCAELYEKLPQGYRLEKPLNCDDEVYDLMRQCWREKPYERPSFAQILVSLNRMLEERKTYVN

SMILES	IC50 (TIE2 kinase) [nM]	IC50 (Raf kinase) [nM]
CNC(=O)c1cc(Oc2ccc3c(c2)CCN3C(=O)Nc2cccc(C(F)(F)F)c2)ccn1 [Example 3, 5-(2-Methylcarbamoyl-pyridin-4-yloxy)-2,3-dihydro-indole-1-carboxylic acid(3′-trifluoromethyl-phenyl)-amide]	< 250	–
CNC(=O)c1cc(Oc2ccc3c(c2)CCN3C(=O)Nc2cc(C(F)(F)F)cc(C(F)(F)F)c2)ccn1 [Example 6, 5-(2-Methylcarbamoyl-pyridin-4-yloxy)-2,3-dihydro-indole-1-carboxylic acid(bis-3′,5′-trifluoromethylphenyl)-amide]	< 250	–
CNC(=O)c1cc(Oc2ccc3c(c2)CCN3C(=O)Nc2ccc(F)c(C(F)(F)F)c2)ccn1 [Example 4, 5-(2-Methylcarbamoyl-pyridin-4-yloxy)-2,3-dihydro-indole-1-carboxylic acid(4′-fluoro-3′-trifluoromethyl-phenyl)-amide]	< 250	–
CNC(=O)c1cc(Oc2ccc3c(c2)CCN3C(=O)Nc2ccc(Cl)c(C(F)(F)F)c2)ccn1 [Example 8, 5-(2-Methylcarbamoyl-pyridin-4-yloxy)-2,3-dihydro-indole-1-carboxylic acid(4′-chloro-3′-trifluoromethyl-phenyl)-amide]	–	< 250
CNC(=O)c1cc(Oc2ccc3c(c2)CCN3C(=O)Nc2cc(C(C)(C)C)on2)ccn1 [Example 7, 5-(2-Methylcarbamoyl-pyridin-4-yloxy)-2,3-dihydro-indole-1-carboxylic acid(5-tert-butyl-isoxazol-3-yl)-amide trifluoroacetate]	< 250	–
